Here are results for eight compounds from ChEMBL document CHEMBL1126225, “Potential mechanism-based inhibitors of proteolytic enzymes” (Bioorg Med Chem Lett, 1992).

As usually defined, the Ki is the equilibrium dissociation constant of an inhibitor or competing ligand from its target. Read a low Ki as higher affinity.

The target in experiment [1] is T1, Neutrophil elastase (Homo sapiens) (UniProt P08246).
T1 sequence (whole entry): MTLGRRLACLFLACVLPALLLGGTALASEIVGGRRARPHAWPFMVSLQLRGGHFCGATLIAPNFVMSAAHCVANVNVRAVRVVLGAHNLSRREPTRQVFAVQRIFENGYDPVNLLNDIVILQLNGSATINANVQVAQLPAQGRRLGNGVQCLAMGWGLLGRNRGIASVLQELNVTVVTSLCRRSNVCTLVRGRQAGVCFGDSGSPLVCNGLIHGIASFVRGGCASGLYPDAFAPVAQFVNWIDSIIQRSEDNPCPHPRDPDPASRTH
The experiment is described as follows: Compound was tested for the inhibition of human leukocyte elastase (HLE) by ratio of Kobs to that of KI; Insoluble.

For another experiment, the target named is T2, Neutrophil elastase (Homo sapiens, UniProt P08246).
T2 sequence (P08246 whole entry): T1 sequence (whole entry)
As to the kind of experiment: Compound was tested for the inhibition of human leukocyte elastase (HLE).

Experiment [2] addresses T1, Neutrophil elastase (Homo sapiens). As to the kind of experiment: Compound was tested for the inhibition of human leukocyte elastase (HLE) by ratio of Kobs to that of KI.

With `CC(C)C[C@H](NC(=O)OCc1ccccc1)C(=O)CN1C(=O)c2ccccc2C1=O`, the “K obs / 1” value in experiment [1] is listed as “Insoluble”. On to `CC(C)C[C@H](N)C(=O)CN1C(=O)c2ccccc2C1=O`, for which affinity on Neutrophil elastase was put at a Ki of 17.5 µM. With `CC(C)C[C@H](NC(=O)OCc1ccccc1)C(=O)CN1C(=O)c2ccccc2S1(=O)=O`, the K obs / 1 in experiment [2] was determined as 420 M⁻¹ s⁻¹. Turning to `CC(C)Cc1ccc(C(C)C(=O)CN2C(=O)CC(CC(C)C)C2=O)cc1` (stereo not drawn), the K obs / 1 in experiment [2] was 16 M⁻¹ s⁻¹.

Regarding `CC(C)Cc1ccc(C(C)C(=O)CN2C(=O)c3ccccc3S2(=O)=O)cc1` (stereo not drawn), in experiment [2], the K obs / 1 turned out to be 160 M⁻¹ s⁻¹. As for `CC(C)Cc1ccc(C(C)C(=O)CN2C(=O)CC(Cc3ccccc3)C2=O)cc1` (stereo not drawn), the K obs / 1 in experiment [2] is 45 M⁻¹ s⁻¹. Regarding `CC(C)C[C@H](NC(=O)OCc1ccccc1)C(=O)CN1C(=O)CC(Cc2ccccc2)C1=O` (stereo partly drawn), the K obs / 1 in experiment [2] was determined as 3 M⁻¹ s⁻¹. `O=C(CN1C(=O)c2ccccc2S1(=O)=O)OCc1ccccc1`: the K obs / 1 in experiment [2] worked out at 4 M⁻¹ s⁻¹.
